We go through four compounds from PubChem BioAssay AID1918958 (Molecular Pharmacology Branch, DTP, NCI, 2023).

This assay concerns NCI-H196 complex spheroid viability. Kind of assay: Anticancer human tumor NCI-H196 cell line growth inhibition [LSD1].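 For all read-outs here: spheroids exposed to agents for 7 days before readout.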 To be noted: for viability, T/C: stronger effect = lower value. The text has this: Multicellular complex tumor spheroid response to LSD1 Inhibitor Iadademstat in combination with a variety of drugs and investigational agents in selected tumor cell lines
The current study was undertaken to assess response to LSD1 inhibitors in combination with standard-of-care drugs and investigational agents in solid tumor complex spheroid models as well as in the K-562 leukemia. Complex spheroids include a stromal component modeled by human endothelial cells (HUVEC) and fibroblasts modeled by human mesenchymal stem cells (MSCs). The concentration ranges selected for each drug and investigational agent were based upon clinically achievable concentrations if the clinical Cmax of the agent was known.
Compounds. The drugs and investigational agents used in this study are listed on Table 1. All of the agents used, including staurosporine (NSC755774) and gemcitabine (NSC613327), were obtained from the Developmental Therapeutics Program, NCI. FDA-approved anticancer drugs are available from the NCI at http://dtp.nci.nih.gov/branches/dscb/oncology_drugset_explanation.html. Drugs and investigational agents were >95% pure by proton nuclear magnetic resonance (NMR) and liquid chromatography/mass spectrometry (LC/MS). Stock solutions were prepared at 400x in DMSO, stored at -70 degrees C, and diluted in fresh medium prior to their use. The final concentration of DMSO in cell culture wells never exceeded 0.25% (v/v). The FDA-approved anticancer drug set is available from the Developmental Therapeutics Program at https://dtp.cancer.gov/organization/dscb/obtaining/available_plates.htm. All drugs and investigational agents were tested over a range starting from a high concentration at or near the clinical Cmax and decreasing in half-log increments. If the clinical Cmax for an agent had not been determined, the highest concentration tested was 10 microM.
Cell Lines. The patient-derived cancer cell (PDC) lines: 292921-168-R-J2-PDC, K24384-001-R-PDC, and 521955-158-R2-J5-PDC pancreatic carcinomas, 556581-035-R-J1 ovarian carcinoma, 324938-238-R-J1-PDC, 855422-203-R-J1-PDC and 883617-216-R-J1-PDC urothelial bladder carcinomas, 743489-274-T-PDC renal cell carcinoma, 138582-R-J1 Merkel cell tumor, K60290-347-R-J1 and K57222-313-R-J1-PDC glioblastomas, 653999-131-R-J2-PDC, LG0703-F948-PDC, and 349418-098-R-PDC non-small cell lung carcinomas, 885512-296-R-J2-PDC, 171881-019-R-J1-PDC breast carcinomas and 186277-243-T-J2-PDC and 233499-124-R-J2-PDC colon carcinomas were obtained from the NCI Patient-Derived Models Repository (PDMR, https://pdmr.cancer.gov). The established cell lines NCI/ADR-RES (RRID:CVCL_14520 and OVCAR-5 (RRID:CVCL_1628) ovarian carcinomas, 786-O (RRID:CVCL_1051) and A498 (RRID:CVCL_A498) renal cell carcinoma, NCI-H211 (ATCC, cat. CRL-5824; RRID:CVCL_1529), NCI-H196 (ATCC, cat. CRL-5823, RRID:CVCL_1509), SW 1271 (ATCC, cat. CRL-2177, RRID:CVCL_1716) and NCI-H1876 (ATCC, cat. CRL-5902, RRID:CVCL_1503) small cell lung carcinomas, MDA-MB-231 (RRID:CVCL_0062) and MDA-MB-468 (RRID:CVCL_0419)breast carcinomas (10-12). Pooled donor human umbilical vein endothelial cells (HUVEC, Lonza, cat. CC-2519) and human mesenchymal stem cells (hMSC, Lonza, cat. PT-2501) were purchased from Lonza (Walkersville, MD).
Cell Culture. All cells were maintained in an incubator at 37 degrees C and 5% CO2 with 95% humidity. The PDC lines were cultured according to standard operating procedures established by the NCI PDMR (https://pdmr.cancer.gov). Briefly all PDCs were thawed and cultured in Matrigel-coated flasks prepared with a working solution of 1X Ham's F-12 nutrient mix, without supplementation (Invitrogen, Waltham, MA, cat. 11765054), 100 U/mL penicillin-streptomycin (Invitrogen, cat. 15140122), and 2.5% Matrigel (Corning Inc., Corning, NY, cat. 354248) for the first three passages. […]

Setting [1] is: curve of first compound, second compound 0.1 µM.
The mark [2] stands for this setting: curve of first compound, second compound 0.316 µM.
Where [3] appears, read: curve of first compound, second compound 1 µM.
[4] abbreviates: curve of first compound, second compound 3.16 µM.
Where [5] appears, read: curve of first compound, second compound 10 µM.

The term viability, T/C denotes the ratio of treated to control. As a reminder, the IC50 is the concentration needed to halve the response being measured.

Values joined by “and” are separate entries in the source; they are usually repeats but may differ in a detail not shown here. Identical values can stand only once.

As for `O=C(c1cc(Cc2n[nH]c(=O)c3ccccc23)ccc1F)N1CCN(C(=O)C2CC2)CC1`, the viability, T/C is, setting by setting: (compound 0.0316 µM) 91.2% and 89.6%; (compound 0.1 µM) 93.7% and 93.2%; (compound 0.316 µM) 91.9% and 90%; (compound 1 µM) 94% and 84.9%; (compound 3.16 µM) 89.9% and 91.9%; (compound 10 µM) 95.3% and 95.9%. Also, under “curve of compound”, the IC50 was more than 10 µM.
For `Nc1ncn(C2CC(O)C(CO)S2)c(=O)n1` (centres undefined), the viability, T/C was 96.8% and 102% (compound 0.000949 µM); 105% and 111% (compound 0.003 µM); 103% and 106% (compound 0.00949 µM); 106% and 111% (compound 0.03 µM); 111% and 116% (compound 0.0949 µM); 100% and 104% (compound 0.3 µM). Where the note is “curve of compound”, the IC50 was more than 0.3 µM.
`O=C(c1cc(Cc2n[nH]c(=O)c3ccccc23)ccc1F)N1CCN(C(=O)C2CC2)CC1` + NC1CC1c1ccc(-c2cccc(O)c2)cc1: the IC50 runs as follows: under setting [1], more than 10 µM; under setting [2], more than 10 µM; under setting [3], more than 10 µM; under setting [4], more than 10 µM; under setting [5], more than 10 µM. Besides, the viability, T/C was 85.5% (second compound 0.1 µM, first compound 0.0316 µM); 85.3% (second compound 0.1 µM, first compound 0.1 µM); 89.4% (second compound 0.1 µM, first compound 0.316 µM); 90.4% (second compound 0.1 µM, first compound 1 µM); 87.2% (second compound 0.1 µM, first compound 3.16 µM); 92.3% (second compound 0.1 µM, first compound 10 µM). The viability, T/C is, setting by setting: (second compound 0.316 µM, first compound 0.0316 µM) 98%; (second compound 0.316 µM, first compound 0.1 µM) 90.3%; (second compound 0.316 µM, first compound 0.316 µM) 86.5%; (second compound 0.316 µM, first compound 1 µM) 86.2%; (second compound 0.316 µM, first compound 3.16 µM) 91.7%; (second compound 0.316 µM, first compound 10 µM) 83%. The viability, T/C by setting is: (second compound 1 µM, first compound 0.0316 µM) 90.8%; (second compound 1 µM, first compound 0.1 µM) 88.1%; (second compound 1 µM, first compound 0.316 µM) 95.8%; (second compound 1 µM, first compound 1 µM) 92.1%; (second compound 1 µM, first compound 3.16 µM) 87.2%; (second compound 1 µM, first compound 10 µM) 78%. In addition, the viability, T/C by setting is: (second compound 3.16 µM, first compound 0.0316 µM) 90.4%; (second compound 3.16 µM, first compound 0.1 µM) 99.3%; (second compound 3.16 µM, first compound 0.316 µM) 99.3%; (second compound 3.16 µM, first compound 1 µM) 92.3%; (second compound 3.16 µM, first compound 3.16 µM) 88.9%; (second compound 3.16 µM, first compound 10 µM) 76.7%. The viability, T/C is 84.9% (second compound 10 µM, first compound 0.0316 µM); 93.9% (second compound 10 µM, first compound 0.1 µM); 88.9% (second compound 10 µM, first compound 0.316 µM); 83% (second compound 10 µM, first compound 1 µM); 83% (second compound 10 µM, first compound 3.16 µM); 80.9% (second compound 10 µM, first compound 10 µM).
Regarding `COc1cc(C2c3cc4c(cc3C(OC3OC5COC(C)OC5C(O)C3O)C3COC(=O)C23)OCO4)cc(OC)c1O` (centres undefined) + NC1CC1c1ccc(-c2cccc(O)c2)cc1, the IC50 under setting [1] is more than 3 µM; the IC50 under setting [2] is more than 3 µM; the IC50 under setting [3] is more than 3 µM; the IC50 under setting [4] is more than 3 µM; the IC50 under setting [5] was more than 3 µM. In addition, the viability, T/C is 95.2% (second compound 0.1 µM, first compound 0.00949 µM); 97% (second compound 0.1 µM, first compound 0.03 µM); 109% (second compound 0.1 µM, first compound 0.0949 µM); 101% (second compound 0.1 µM, first compound 0.3 µM); 85.1% (second compound 0.1 µM, first compound 0.949 µM); 69.1% (second compound 0.1 µM, first compound 3 µM). The viability, T/C runs as follows: (second compound 0.316 µM, first compound 0.00949 µM) 98.5%; (second compound 0.316 µM, first compound 0.03 µM) 100%; (second compound 0.316 µM, first compound 0.0949 µM) 105%; (second compound 0.316 µM, first compound 0.3 µM) 102%; (second compound 0.316 µM, first compound 0.949 µM) 88.2%; (second compound 0.316 µM, first compound 3 µM) 65.1%. Further, the viability, T/C is, setting by setting: (second compound 1 µM, first compound 0.00949 µM) 90.9%; (second compound 1 µM, first compound 0.03 µM) 104%; (second compound 1 µM, first compound 0.0949 µM) 117%; (second compound 1 µM, first compound 0.3 µM) 121%; (second compound 1 µM, first compound 0.949 µM) 84.1%; (second compound 1 µM, first compound 3 µM) 61.8%. For the same compound, the viability, T/C is 92.8% (second compound 3.16 µM, first compound 0.00949 µM); 92.4% (second compound 3.16 µM, first compound 0.03 µM); 104% (second compound 3.16 µM, first compound 0.0949 µM); 91.4% (second compound 3.16 µM, first compound 0.3 µM); 76.9% (second compound 3.16 µM, first compound 0.949 µM); 53.7% (second compound 3.16 µM, first compound 3 µM). Also, the viability, T/C reads like this: (second compound 10 µM, first compound 0.00949 µM) 90%; (second compound 10 µM, first compound 0.03 µM) 101%; (second compound 10 µM, first compound 0.0949 µM) 102%; (second compound 10 µM, first compound 0.3 µM) 90.8%; (second compound 10 µM, first compound 0.949 µM) 78.5%; (second compound 10 µM, first compound 3 µM) 59.9%.
